Laboratory results: patent US10351601B2, “CXCR4 antagonists and methods of use” (Mainline Biosciences, priority 2016, dated 2019)
Read-outs that look alike come from different tables or passages of the source. Bridge positions count the residues as written; N and C are the ends. Square brackets hold non-standard residues; d marks the D form. Peptide text beside a SMILES is read from it. * marks the point of attachment. 2Nal = N[C@@H](Cc1ccc2ccccc2c1)C(=O)O; Lys(iPr) = CC(C)NCCCC[C@H](N)C(=O)O; hCys = N[C@@H](CCS)C(=O)O; Bz = O=C(c1ccccc1)*; Mpa = O=C(O)CCS

Target: T1, Human chemokine receptor CXCR4 (Homo sapiens, UniProt P61073)
T1 construct: expressed in transfected cells; host or cells: Chem-1 cells (membranes)
T1 sequence (P61073 whole entry): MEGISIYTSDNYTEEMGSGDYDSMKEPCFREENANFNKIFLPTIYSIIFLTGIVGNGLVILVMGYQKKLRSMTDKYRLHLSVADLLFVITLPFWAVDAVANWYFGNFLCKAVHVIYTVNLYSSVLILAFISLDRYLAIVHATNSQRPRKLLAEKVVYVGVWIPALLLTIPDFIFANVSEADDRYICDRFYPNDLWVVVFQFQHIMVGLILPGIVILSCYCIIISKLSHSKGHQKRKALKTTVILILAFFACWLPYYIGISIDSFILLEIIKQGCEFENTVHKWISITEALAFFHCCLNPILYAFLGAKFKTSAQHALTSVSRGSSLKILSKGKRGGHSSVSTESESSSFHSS
Assay: Human CXCR4/125I-SDF-1α binding inhibition assay
Description: “Ki” values are calculated using IC50 values determined in the CXCR4/^125I-SDF-1α binding assay described below by employing equation 7.22 of Enzymes, A Practical Introduction to Structure, Mechanism, and Data Analysis, Robert A. Copeland, Wiley-VCH, New York, 1996, page 207.
Human CXCR4/^125I-SDF-1α Binding Inhibition Assay:
Human chemokine receptor CXCR4 expressed in Chem-1 cells were used in modified HEPES buffer pH 7.4. A […] (Membrane protein may change from lot to lot, the concentration used were adjusted as necessary), aliquot was incubated with 0.03 nM [^125I]SDF-1α for 90 minutes at 25° C. Non-specific binding was estimated in the presence of 30 nM SDF-la. Membranes were filtered and washed, filters were then counted to determine [^125I]SDF-1α specifically bound. Compounds were screened starting at 10 μM with 11-point dilutions (Valenzuela-Fernandez A, et al. J Biol Chem. 277(18):15677, 2002).

[1] = calculated from IC50 of the CXCR4/125I-SDF-1α binding assay, read-out: Binding Kb

IC50 (CXCR4 expressed in Chem-1 cells, 0.03 nM [125I]SDF-1α, 90 minutes at 25° C., HEPES buffer pH 7.4, read-out: Binding IC50) | SMILES | Kb [1] | IC50 | Kb
– | CC(C)NCCCC[C@@H]1NC(=O)[C@H](Cc2ccc(O)cc2)NC(=O)CCSSC[C@@H](C(=O)N[C@H](CCCNC(=N)N)C(=O)NCC(=O)N[C@H](Cc2ccccc2)C(=O)NCC(N)=O)NC(=O)CNC(=O)[C@H](Cc2ccc3ccccc3c2)NC(=O)[C@@H](CCCNC(=N)N)NC1=O [Example 4, Cyclo[Mpa-Tyr-Lys(iPr)-(D-Arg)-2Nal-Gly-Cys]-(D-Arg)-Gly-(D-Phe)-Gly-NH2] ([Mpa]Y[Lys(iPr)][dR][2Nal]GC[dR]G[dF]G-NH2; disulfide 1-7) | 0.21 nM | – | –
– | CCNC(=O)CNC(=O)[C@H](CCCCNC(C)C)NC(=O)[C@@H]1CSSCC[C@H](NC(=O)c2ccccc2)C(=O)N[C@@H](Cc2ccc(O)cc2)C(=O)N[C@@H](CCCCNC(C)C)C(=O)N[C@H](CCCNC(=N)N)C(=O)N[C@@H](Cc2ccc3ccccc3c2)C(=O)NCC(=O)N1 [Example 14, Benzoyl-cyclo[hCys-Tyr-Lys(iPr)-(D-Arg)-2Nal-Gly-Cys]-Lys(iPr)-Gly-NH(Et)] (Bz-[hCys]Y[Lys(iPr)][dR][2Nal]GC[Lys(iPr)]G-NHEt; disulfide 1-7) | – | 1.3 nM | 0.39 nM
> 1000 nM | N=C(N)NCCC[C@@H]1NC(=O)CCSSC[C@@H](C(=O)N[C@@H](CCCNC(=N)N)C(=O)NCC(=O)N[C@H](Cc2ccccc2)C(=O)NCC(N)=O)NC(=O)CNC(=O)[C@H](Cc2ccc3ccccc3c2)NC(=O)[C@H](CCCNC(=N)N)NC(=O)[C@H](Cc2ccc(O)cc2)NC1=O [Example 5, Cyclo[Mpa-Arg-Tyr-Arg-2Nal-Gly-Cys]-Arg-Gly-(D-Phe)-Gly-NH2] ([Mpa]RYR[2Nal]GCRG[dF]G-NH2; disulfide 1-7) | > 1000 nM | – | –
– | CC(C)NCCCC[C@H](NC(=O)[C@@H]1CCSSC[C@H](NC(=O)c2ccccc2)C(=O)N[C@@H](Cc2ccc(O)cc2)C(=O)N[C@@H](CCCCNC(C)C)C(=O)N[C@H](CCCNC(=N)N)C(=O)N[C@@H](Cc2ccc3ccccc3c2)C(=O)NCC(=O)N1)C(=O)NCC(N)=O [Example 12, Benzoyl-cyclo[Cys-Tyr-Lys(iPr)-(D-Arg)-2Nal-Gly-hCys]-Lys(iPr)-Gly-NH2] (Bz-CY[Lys(iPr)][dR][2Nal]G[hCys][Lys(iPr)]G-NH2; disulfide 1-7) | – | – | 0.21 nM
